Measurements reported in patent publication US6737383B1, “Herbicidal oxadiazolidines” (priority 1999, dated 2004).

Legend:
pigweed = assay: Test B pre/postemergence pigweed; type: in vivo, Amaranthus retroflexus
In short: (§1)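 Herbicidal effect was estimated by eye on a ten-point control scale after plants spent twelve to sixteen days in a greenhouse following soil or foliar treatment. Foliar sprays targeted plants at one to four leaves; all doses were formulated in a non-phytotoxic solvent with surfactant.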

purple nutsedge = assay: Test B pre/postemergence purple nutsedge; type: in vivo, Cyperus rotundus
In short: as §1

cocklebur = assay: Test B pre/postemergence cocklebur; type: in vivo, Xanthium strumarium
In short: as §1

rice = assay: Test B flood test rice; type: in vivo, Oryza sativa
In short: (§2)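 Read-out is a visual response score from 0 (no effect) to 10 (complete control), assigned by comparison with untreated controls. Treatment was applied at the 2-leaf stage, and plants stayed in the greenhouse for twelve to sixteen days before scoring.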

corn = assay: Test B pre/postemergence corn; type: in vivo, Zea mays
In short: as §1

giant foxtail = assay: Test B pre/postemergence giant foxtail; type: in vivo, Setaria faberii
In short: as §1

crabgrass = assay: Test B pre/postemergence crabgrass; type: in vivo, Digitaria sanguinalis
In short: as §1

bamyardgrass = assay: Test B flood test barnyardgrass; type: in vivo, Echinochloa crus-galli
In short: as §2

rape = assay: Test B pre/postemergence rape; type: in vivo, Brassica napus
In short: as §1

velvetleaf = assay: Test B pre/postemergence velvetleaf; type: in vivo, Abutilon theophrasti
In short: as §1

wheat = assay: Test B pre/postemergence wheat; type: in vivo, Triticum aestivum
In short: as §1

sugar beet = assay: Test B pre/postemergence sugar beet; type: in vivo, Beta vulgaris
In short: as §1

soybean = assay: Test B pre/postemergence soybean; type: in vivo, Glycine max
In short: as §1

wild oat = assay: Test B pre/postemergence wild oat; type: in vivo, Avena fatua
In short: as §1

morningglory = assay: Test B pre/postemergence morningglory; type: in vivo, Ipomoea hederacea
In short: as §1

duck salad = assay: Test B flood test duck salad; type: in vivo, Heteranthera limosa
In short: as §2

[1] = Postemergence, Rate 31 g/ha, visual rating, scale 0 to 10 (0 no effect, 10 complete control)
[2] = Postemergence, Rate 125 g/ha, scale 0 to 10, 0 is no effect, 10 is complete control
[3] = Postemergence, Rate 250 g/ha, scale 0 to 10
[4] = Preemergence, Rate 62 g/ha, scale of 0 to 10 where 0 is no effect and 10 is complete control
[5] = Preemergence, Rate 125 g/ha, scale 0 to 10, 0 is no effect, 10 is complete control
[6] = Preemergence, Rate 250 g/ha, scale 0 to 10, 0 is no effect, 10 is complete control
[7] = Rate 62 g/ha, Postemergence, scale 0 to 10, 0 no effect, 10 complete control
[8] = Preemergence, Rate 31 g/ha, visual rating, scale 0 to 10 (0 no effect, 10 complete control)
[9] = Rate 31 g/ha, Pre-emergence section (flood test species), scale 0 to 10
[10] = Rate 62 g/ha, flood test species, Pre-emergence, visual evaluation after twelve to sixteen days
[11] = Rate 125 g/ha, under heading Pre-emergence, flood test species, visual evaluation after twelve to sixteen days
[12] = Rate 250 g/ha, Pre-emergence (flood test species), scale 0 to 10, 0 is no effect, 10 is complete control

CC(C)N(C(=O)n1oc(=O)n(CC[N+](=O)[O-])c1=O)c1ccc(Cl)cc1 [Compound 483]
0: Redroot pigweed plant response rating (pigweed; [1]) | Redroot pigweed plant response rating (pigweed; [2]) | Redroot pigweed plant response rating (pigweed; [3]) | Plant response rating, Redroot pigweed (pigweed; [4]) | Redroot pigweed plant response rating (pigweed; [5]) | Redroot pigweed plant response rating (pigweed; [6]) | Redroot pigweed plant response rating (pigweed; [7]) | Nutsedge plant response rating (purple nutsedge; [1]) | Nutsedge plant response rating (purple nutsedge; [2]) | Nutsedge plant response rating (purple nutsedge; [3]) | Plant response rating, Nutsedge (purple nutsedge; [4]) | Nutsedge plant response rating (purple nutsedge; [5]) | Nutsedge plant response rating (purple nutsedge; [6]) | Nutsedge plant response rating (purple nutsedge; [7]) | Cocklebur plant response rating (cocklebur; [1]) | Cocklebur plant response rating (cocklebur; [2]) | Cocklebur plant response rating (cocklebur; [3]) | Cocklebur plant response rating (cocklebur; [8]) | Plant response rating, Cocklebur (cocklebur; [4]) | Cocklebur plant response rating (cocklebur; [5]) | Cocklebur plant response rating (cocklebur; [6]) | Cocklebur plant response rating (cocklebur; [7]) | Rice plant response rating (rice; [9]) | Plant response rating, Rice (0 to 10 scale, 0 is no effect, 10 is complete control) (rice; [10]) | Rice plant response rating (0 to 10 scale, 0 is no effect, 10 is complete control) (rice; [11]) | Rice plant response rating (rice; [12]) | Corn plant response rating (corn; [1]) | Corn plant response rating (corn; [2]) | Corn plant response rating (corn; [3]) | Corn plant response rating (corn; [8]) | Plant response rating, Corn (corn; [4]) | Corn plant response rating (corn; [5]) | Corn plant response rating (corn; [6]) | Corn plant response rating (corn; [7]) | Giant foxtail plant response rating (giant foxtail; [1]) | Giant foxtail plant response rating (giant foxtail; [2]) | Giant foxtail plant response rating (giant foxtail; [3]) | Giant foxtail plant response rating (giant foxtail; [8]) | Plant response rating, Giant foxtail (giant foxtail; [4]) | Giant foxtail plant response rating (giant foxtail; [5]) | Giant foxtail plant response rating (giant foxtail; [6]) | Giant foxtail plant response rating (giant foxtail; [7]) | Crabgrass plant response rating (crabgrass; [1]) | Crabgrass plant response rating (crabgrass; [2]) | Crabgrass plant response rating (crabgrass; [3]) | Crabgrass plant response rating (crabgrass; [8]) | Plant response rating, Crabgrass (crabgrass; [4]) | Crabgrass plant response rating (crabgrass; [5]) | Crabgrass plant response rating (crabgrass; [6]) | Crabgrass plant response rating (crabgrass; [7]) | Barnyardgrass plant response rating (bamyardgrass; [9]) | Plant response rating, Barnyardgrass (0 to 10 scale, 0 is no effect, 10 is complete control) (bamyardgrass; [10]) | Barnyardgrass plant response rating (0 to 10 scale, 0 is no effect, 10 is complete control) (bamyardgrass; [11]) | Barnyardgrass plant response rating (bamyardgrass; [12]) | Rape plant response rating (rape; [1]) | Rape plant response rating (rape; [2]) | Rape plant response rating (rape; [3]) | Plant response rating, Rape (rape; [4]) | Rape plant response rating (rape; [5]) | Rape plant response rating (rape; [6]) | Rape plant response rating (rape; [7]) | Velvetleaf plant response rating (velvetleaf; [1]) | Velvetleaf plant response rating (velvetleaf; [2]) | Velvetleaf plant response rating (velvetleaf; [3]) | Plant response rating, Velvetleaf (velvetleaf; [4]) | Velvetleaf plant response rating (velvetleaf; [5]) | Velvetleaf plant response rating (velvetleaf; [6]) | Velvetleaf plant response rating (velvetleaf; [7]) | Wheat plant response rating (wheat; [1]) | Wheat plant response rating (wheat; [2]) | Wheat plant response rating (wheat; [3]) | Plant response rating, Wheat (wheat; [4]) | Wheat plant response rating (wheat; [5]) | Wheat plant response rating (wheat; [6]) | Wheat plant response rating (wheat; [7]) | Sugarbeets plant response rating (sugar beet; [1]) | Sugarbeets plant response rating (sugar beet; [2]) | Sugarbeets plant response rating (sugar beet; [3]) | Plant response rating, Sugarbeets (sugar beet; [4]) | Sugarbeets plant response rating (sugar beet; [5]) | Sugarbeets plant response rating (sugar beet; [6]) | Sugarbeets plant response rating (sugar beet; [7]) | Soybean plant response rating (soybean; [1]) | Soybean plant response rating (soybean; [2]) | Soybean plant response rating (soybean; [3]) | Plant response rating, Soybean (soybean; [4]) | Soybean plant response rating (soybean; [5]) | Soybean plant response rating (soybean; [6]) | Soybean plant response rating (soybean; [7]) | Wild oats plant response rating (wild oat; [1]) | Wild oats plant response rating (wild oat; [2]) | Wild oats plant response rating (wild oat; [3]) | Plant response rating, Wild oats (wild oat; [4]) | Wild oats plant response rating (wild oat; [5]) | Wild oats plant response rating (wild oat; [6]) | Wild oats plant response rating (wild oat; [7]) | Morningglory plant response rating (morningglory; [1]) | Morningglory plant response rating (morningglory; [2]) | Morningglory plant response rating (morningglory; [3]) | Plant response rating, Morningglory (morningglory; [4]) | Morningglory plant response rating (morningglory; [5]) | Morningglory plant response rating (morningglory; [6]) | Morningglory plant response rating (morningglory; [7]) | Ducksalad plant response rating (duck salad; [9]) | Plant response rating, Ducksalad (0 to 10 scale, 0 is no effect, 10 is complete control) (duck salad; [10]) | Ducksalad plant response rating (0 to 10 scale, 0 is no effect, 10 is complete control) (duck salad; [11]) | Ducksalad plant response rating (duck salad; [12])
